Data: patent US8481576B2 (Abbott GmbH & Co. KG, priority 2004, dated 2013)
Where a name gives a salt, the structure may show the parent alone.

Molecular target: T1, h5-HT5A receptor (Homo sapiens, UniProt P47898)
T1 construct: expressed in transfected cells; host or cells: HEK293
Assay: [3H]5-CT binding assay h5-HT5A
Conditions: membranes from HEK293 cells expressing h5-HT5A, 2.5 nM [3H]5-CT; read-out: Binding affinity 5-HT5A (Ki)
In short: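 Membranes from HEK293 cells stably expressing h5-HT5A incubated with 2.5 nM [3H]5-CT and compound in 100 mM Tris-HCl pH 7.7, 1 mM EDTA, 75 min at 30° C. Nonspecific binding with 10 μM methiothepine; filtration and scintillation counting give Ki or IC50.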

T1 sequence (P47898 whole entry): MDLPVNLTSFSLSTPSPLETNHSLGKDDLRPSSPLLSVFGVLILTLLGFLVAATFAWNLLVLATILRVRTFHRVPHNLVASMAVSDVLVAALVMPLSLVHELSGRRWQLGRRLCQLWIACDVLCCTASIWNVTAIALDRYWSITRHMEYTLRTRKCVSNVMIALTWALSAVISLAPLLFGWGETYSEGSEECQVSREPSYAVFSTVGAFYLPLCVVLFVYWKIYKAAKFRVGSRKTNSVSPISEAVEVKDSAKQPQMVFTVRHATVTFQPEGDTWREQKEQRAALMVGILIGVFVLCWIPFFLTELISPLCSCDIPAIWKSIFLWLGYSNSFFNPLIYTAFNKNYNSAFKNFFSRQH

| Compound | Ki [nM] |
| --- | --- |
| COc1ccccc1CNC(=N)Nc1nc(-c2ccc3ccccc3c2)cs1 [Example 33, N-(2-methoxybenzyl)-N′-[4-(2-naphthyl)-1,3-thiazole-2-yl]guanidine] | < 50 |
| COc1ccccc1CNC(=N)Nc1nc(C)c(C)o1 [Example 173, N-(4,5-dimethyl-1,3-oxazole-2-yl)-N′-(2-methoxybenzyl)guanidine] | 50 to 500 |
| COc1cccc(OC)c1CNC(=N)Nc1nc(-c2csc3ccccc23)cs1 [Example 96, N-[4-(1-benzothiene-3-yl)-1,3-thiazole-2-yl]-N′-(2,6-dimethoxybenzyl)guanidine hydrobromide] | < 50 |
| COc1cccc(OC)c1CNC(=N)Nc1nc(-c2ccccc2)cs1 [Example 2, N-(2,6-dimethoxybenzyl)-N′-(4-phenyl-1,3-thiazole-2-yl)guanidine] | < 50 |
| COc1cccc(OC)c1CNC(=N)Nc1nc(-c2ccc(N3CCOCC3)cc2)cs1 [Example 65, N-(2,6-dimethoxybenzyl)-N′-[4-(4-morpholine-4-ylphenyl)-1,3-thiazole-2-yl]guanidine hydrobromide] | < 50 |
| COc1cccc(OC)c1CNC(=N)Nc1nc(C2CCCN2Cc2ccccc2)cs1 (stereo not drawn) [Example 151, N-[4-(1-benzylpyrrolidine-2-yl)-1,3-thiazole-2-yl]-N′-(2,6-dimethoxybenzyl)guanidine] | < 50 |
| COc1cccc(OC)c1CNC(=N)Nc1nccs1 [Example 5, N-(2,6-dimethoxybenzyl)-N′-1,3-thiazole-2-ylguanidine] | < 50 |
| COc1ccccc1CNC(=N)Nc1nc(C)cs1 [Example 39, N-(2-methoxybenzyl)-N′-(4-methyl-1,3-thiazole-2-yl)guanidine (2E)-But-2-endioate] | < 50 |
| COc1ccccc1C(=O)NC(=N)Nc1nccs1 [Example 20, N-[Imino(1,3-thiazole-2-ylamino)methyl]-2-methoxybenzamide] | > 500 |
| COc1ccccc1CNC(=N)Nc1nc2ccccc2s1 [Example 28, N-1,3-benzothiazole-2-yl-N′-(2-methoxybenzyl)guanidine (2E)-But-2-endioate] | 50 to 500 |
| COc1cccc(OC)c1CNC(=N)Nc1nc(-c2ccccn2)cs1 [Example 42, N-(2,6-dimethoxybenzyl)-N′-(4-pyridine-2-yl-1,3-thiazole-2-yl)guanidine (2E)-But-2-endioate] | < 50 |
| COc1cccc(OC)c1CNC(=N)Nc1nc(-c2c(OC)cccc2OC)cs1 [Example 113, N-(2,6-dimethoxybenzyl)-N′-[4-(2,6-dimethoxyphenyl)-1,3-thiazole-2-yl]guanidine] | < 50 |
| N-(2,6-dimethoxybenzyl)-N′-(5-methyl-4-phenyl-1,3-thiazole-2-yl)guanidine hydrobromide [Example 81] | < 50 |
| COc1cccc(OC)c1CNC(=N)Nc1nc(-c2ccc(S(C)(=O)=O)cc2)cs1 [Example 82, N-(2,6-dimethoxybenzyl)-N′-{4-[4-(methylsulfonyl)phenyl]-1,3-thiazole-2-yl}guanidine hydrobromide] | 50 to 500 |
| COc1cccc(OC)c1CNC(=N)Nc1nc2cc(Cl)c(C)cc2s1 [Example 171, N-(5-chlor-6-methyl-1,3-benzothiazole-2-yl)-N′-(2,6-dimethoxybenzyl)guanidine difumarate] | 50 to 500 |
| COc1cccc(OC)c1CNC(=N)Nc1nc(C)c(C(=O)N(C)C)s1 [Example 102, 2-{[[(2,6-dimethoxybenzyl)amino](imino)methyl]amino}-N,N,4-trimethyl-1,3-thiazole-5-carboxamide] | < 50 |
| COc1cccc(F)c1CNC(=N)Nc1cc(C(C)(C)C)[nH]n1 [Example 210, N-(5-tert-butyl-1H-pyrazole-3-yl)-N′-(2-fluoro-6-methoxybenzyl)guanidine] | < 50 |

| Compound | Ki [nM] |
| --- | --- |
| COc1ccccc1CNC(=N)Nc1nc2ccccc2n1C [Example 92, N-(2-methoxybenzyl)-N′-(1-methyl-1H-benzimidazole-2-yl)guanidine] | 50 to 500 |
| COc1ccccc1CNC(=N)Nc1nc(-c2ccncc2)cs1 [Example 46, N-(2-methoxybenzyl)-N′-(4-pyridine-4-yl-1,3-thiazole-2-yl)guanidine] | < 50 |
| COc1ccccc1CNC(=N)Nc1nnc(-c2ccccc2)s1 [Example 175, N-(2-methoxybenzyl)-N′-(5-phenyl-1,3,4-thiadiazole-2-yl)guanidine acetate] | > 500 |
| COc1cccc(OC)c1CNC(=N)Nc1cc(-c2ccc(Cl)cc2)[nH]n1 [Example 212, N-[5-(4-chlorophenyl)-1H-pyrazole-3-yl]-N′-(2,6-dimethoxybenzyl)guanidine] | < 50 |
| COc1ccccc1CNC(=N)Nc1ccn(C)n1 [Example 214, N-(2-methoxybenzyl)-N′-(1-methyl-1H-pyrazole-3-yl)guanidine] | < 50 |
| COc1ccccc1CNC(=N)Nc1nc(-c2ccc(F)cc2)c[nH]1 [Example 186, N-[4-(4-fluorophenyl)-1H-imidazole-2-yl]-N′-(2-methoxybenzyl)guanidine] | < 50 |
| COc1cccc(C)c1CNC(=N)Nc1nc(-c2ccc(Cl)cn2)cs1 [Example 137, N-[4-(5-chloropyridine-2-yl)-1,3-thiazole-2-yl]-N′-(2-methoxy-6-methylbenzyl)guanidine] | > 500 |
| N-(2-methoxybenzyl)-N′-1,3-thiazole-2-ylguanidine hydrochloride [Example 11] | 50 to 500 |
| COc1ccccc1CNC(=N)Nc1nc(-c2ccccc2)co1 [Example 197, N-(2-methoxybenzyl)-N′-(4-phenyl-1,3-oxazole-2-yl)guanidine] | 50 to 500 |
| COc1cccc(Cl)c1CNC(=N)Nc1cc(C(C)(C)C)[nH]n1 [Example 213, N-(5-tert-butyl-1H-pyrazole-3-yl)-N′-(2-chloro-6-methoxybenzyl)guanidine] | < 50 |
| COc1cccc(OC)c1CNC(=N)Nc1nc(-c2cccnc2)cs1 [Example 50, N-(2,6-dimethoxybenzyl)-N′-(4-pyridine-3-yl-1,3-thiazole-2-yl)guanidine acetate] | < 50 |
| COc1cccc(OC)c1CNC(=N)Nc1nc(-c2ccc3ccccc3c2)cs1 [Example 34, N-(2,6-dimethoxybenzyl)-N′-[4-(2-naphthyl)-1,3-thiazole-2-yl]guanidine] | < 50 |
| COc1cccc(OC)c1CNC(=N)Nc1nc(C2CCNCC2)cs1 [Example 162, N-(2,6-dimethoxybenzyl)-N′-(4-piperidine-4-yl-1,3-thiazole-2-yl)guanidine hydrochloride] | < 50 |
| COc1cccc(OC)c1CNC(=N)Nc1nc(C(=O)NCc2ccccc2)cs1 [Example 194, N-benzyl-2-{[[(2,6-dimethoxybenzyl)amino](imino)methyl]amino}-1,3-thiazole-4-carboxamide] | < 50 |
| COc1cccc(Cl)c1CNC(=N)Nc1nc(-c2ccc(Cl)cn2)cs1 [Example 134, N-(2-chloro-6-methoxybenzyl)-N′-[4-(5-chloropyridine-2-yl)-1,3-thiazole-2-yl]guanidine] | 50 to 500 |
| COc1cccc(OC)c1CNC(=N)Nc1nc(N2CCOCC2)cs1 [Example 167, 4-[2-{[[(2,6-dimethoxybenzyl)amino](imino)methyl]amino}-1,3-thiazole-4(5H)-yliden]morpholine-4-ium chloride] | 50 to 500 |
